Active and inactive are the calls of the source. How the calls were made is not given here.

The subject of the data set is GENE-TOX genotoxicity assays, various organisms and cells. Description: GENE-TOX mutagenicity studies. The settings on record: for call: Assay Type: In vivo carcinogenicity studies. The source says: GENE-TOX provides genetic toxicology (mutagenicity) test data from expert peer review of open scientific literature for more than 3,000 chemicals from the United States Environmental Protection Agency (EPA). GENE-TOX was established to select assay systems for evaluation, review data in the scientific literature, and recommend proper testing protocols and evaluation procedures for these systems.
GENE-TOX covers the years 1991 - 1998. It is no longer updated.
This is an archive assay for GENE-TOX mutagenicity studies.

[1] abbreviates: Species/Cell Type: Nonhuman, Assay Code: CCG+, Evaluation Type: Evaluation A (Pre-1980).
The mark [2] stands for this setting: Species/Cell Type: Salmonella typhimurium (one or more of the five standard strains: TA98, TA100, TA1535, TA1537, and TA1538), Assay Type: Histidine reverse gene mutation, Ames assay, Assay Code: SAL+, Evaluation Type: Evaluation A (Pre-1980).
Where [3] appears, read: Species/Cell Type: Salmonella typhimurium (one or more of the five standard strains: TA98, TA100, TA1535, TA1537, and TA1538), Assay Type: Histidine reverse gene mutation, Ames assay, Assay Code: SALT, Evaluation Type: Evaluation A (Pre-1980).

Turning to `Nc1ccc2[nH]ncc2c1`, the mutagenic call (Species/Cell Type: Rat, Sex: Male, Assay Type: Sperm morphology, Assay Code: SPA+, Evaluation Type: Evaluation A (Pre-1980)) was “active; positive”.

For `O=S(=O)(O)c1ccc(N=Nc2c(O)ccc3cc(S(=O)(=O)O)ccc23)cc1`, the mutagenic call (Species/Cell Type: Bacillus subtilis (H17 vs M45), Assay Type: Rec-assay, spot test, DNA effects (bacterial DNA repair), Assay Code: REWT, Evaluation Type: Evaluation A (Pre-1980)) is on record as “no conclusion”; the mutagenic call (Species/Cell Type: Bacillus subtilis (H17 vs M45T), Assay Type: Rec-assay, spot test, DNA effects (bacterial DNA repair), Assay Code: REXT, Evaluation Type: Evaluation A (Pre-1980)) is given as “no conclusion”; the mutagenic call (Species/Cell Type: Nonhuman, Assay Type: Sister-chromatid exchange (SCE) in vitro, Assay Code: SC2T, Evaluation Type: Evaluation A (Pre-1980)) is recorded as “no conclusion”; the mutagenic call (Species/Cell Type: Saccharomyces cerevisiae, Assay Type: Mitotic recombination or gene conversion, Assay Code: YEC-, Evaluation Type: Evaluation A (Pre-1980)) was “inactive; negative”; the mutagenic call (Species/Cell Type: Salmonella typhimurium (one or more of the five standard strains: TA98, TA100, TA1535, TA1537, and TA1538), Assay Type: Histidine reverse gene mutation, Ames assay, Assay Code: SAL-, Evaluation Type: Evaluation A (Pre-1980)) is “inactive; negative”. Besides, for the setting “Species/Cell Type: Nonhuman, Assay Code: CCG-, Evaluation Type: Evaluation A (Pre-1980)”, the call is “inactive; negative”.

For the compound `CCNC(=O)Nc1ncc([N+](=O)[O-])s1`, under setting [1], the call is “active; positive”.

As to `C[C@H]1c2cccc(O)c2C(O)=C2C(=O)[C@]3(O)C(O)=C(C(N)=O)C(=O)[C@@H](N(C)C)[C@@H]3[C@@H](O)[C@@H]21`, where the note is “Species/Cell Type: Human, Sex: Male, Assay Type: Sperm morphology, Assay Code: SPHT, Evaluation Type: Evaluation A (Pre-1980)”, the mutagenic call is recorded as “no conclusion”.

`O=C(O)/C=C/c1ccc([N+](=O)[O-])o1`: the mutagenic call under setting [2] was “active; positive”.

Consider `O=c1[nH]cc(Cl)c(=O)[nH]1`, for which the mutagenic call (Species/Cell Type: Mouse, Sex: Male, Assay Type: Specific locus test, gene mutation, Assay Code: SLTT, Evaluation Type: Evaluation A (Pre-1980)) is on record as “no conclusion”.

As for `NC[C@H]1O[C@H](O[C@H]2[C@H](O)[C@@H](O[C@H]3O[C@H](CO)[C@@H](O)[C@H](N)[C@H]3O)[C@H](N)C[C@@H]2N)[C@H](N)C[C@@H]1O`, the mutagenic call (Species/Cell Type: Saccharomyces cerevisiae, Assay Type: Mitotic recombination or gene conversion, Assay Code: YEH-, Evaluation Type: Evaluation A (Pre-1980)) is “inactive; negative”.

As to `COS(=O)(=O)OC`, the mutagenic call reads like this: (Species/Cell Type: Arabidopsis species, Assay Type: Gene mutation, Assay Code: ARM+, Evaluation Type: Evaluation A (Pre-1980)) “active; positive”; (Species/Cell Type: Aspergillus nidulans, Assay Type: Forward gene mutation, Assay Code: ASF+, Evaluation Type: Evaluation A (Pre-1980)) “active; positive”; (Species/Cell Type: Chinese hamster ovary (CHO) cells, Assay Type: Forward gene mutation at the HPRT locus, Assay Code: CHO+D, Dose Response: With dose response, Evaluation Type: Evaluation A (Pre-1980)) “active; positive”; (Species/Cell Type: Drosophila melanogaster, Assay Type: Aneuploidy, partial sex chromosome loss, chromosome aberrations, Assay Code: DAP-M, Evaluation Type: Evaluation A (Pre-1980)) “inactive; negative”; (Species/Cell Type: Drosophila melanogaster, Assay Type: Aneuploidy, whole sex chromosome loss, chromosome aberrations, Assay Code: DAC+M, Evaluation Type: Evaluation A (Pre-1980)) “active; positive”; (Species/Cell Type: Drosophila melanogaster, Assay Type: Sex-linked recessive lethal gene mutation, Assay Code: SRL+, Evaluation Type: Evaluation A (Pre-1980)) “active; positive”. Also, the mutagenic call is, setting by setting: (Species/Cell Type: Drosophila melanogaster, Sex: Male, Assay Type: Heritable translocation test, chromosome aberrations, Assay Code: DHT+, Evaluation Type: Evaluation A (Pre-1980)) “active; positive”; (Species/Cell Type: Escherichia coli polA (W3119 vs P3478), Assay Type: Rec-assay, DNA effects (bacterial DNA repair), Assay Code: RE1+, Evaluation Type: Evaluation A (Pre-1980)) “active; positive”; (Species/Cell Type: Human, Assay Type: Sister-chromatid exchange (SCE) in vitro, Assay Code: SC1+D, Dose Response: With dose response, Evaluation Type: Evaluation A (Pre-1980)) “active; positive”; (Species/Cell Type: Nonhuman, Assay Type: Chromosome aberrations in vitro, Assay Code: CY&+, Evaluation Type: Evaluation A (Pre-1980)) “active; positive”; (Species/Cell Type: Nonhuman, Assay Type: Sister-chromatid exchange (SCE) in vitro, Assay Code: SC2+, Evaluation Type: Evaluation A (Pre-1980)) “active; positive”; (Species/Cell Type: Saccharomyces cerevisiae, Assay Type: Reverse gene mutation, Assay Code: YER+, Evaluation Type: Evaluation A (Pre-1980)) “active; positive”. Further, the mutagenic call under setting [3] is listed as “no conclusion”; the mutagenic call (Species/Cell Type: Salmonella typhimurium, Assay Type: Forward and reverse gene mutation, host-mediated assay, Assay Code: HMA+, Evaluation Type: Evaluation A (Pre-1980)) was “active; positive”; the mutagenic call (Species/Cell Type: Schizosaccharomyces pombe, Assay Type: Reverse gene mutation, Assay Code: YEZ+, Evaluation Type: Evaluation A (Pre-1980)) is “active; positive”. Under setting [1], the call is “active; positive”.

Regarding `OC(O)C(Cl)(Cl)Cl`, the mutagenic call (Species/Cell Type: Aspergillus nidulans, Assay Type: Aneuploidy, chromosome aberrations, Assay Code: ASN+, Evaluation Type: Evaluation A (Pre-1980)) is “active; positive”; the mutagenic call (Species/Cell Type: Aspergillus nidulans, Assay Type: Mitotic recombination, Assay Code: ASG-, Evaluation Type: Evaluation A (Pre-1980)) is “inactive; negative”; the mutagenic call (Species/Cell Type: Mammalian polychromatic erythrocytes, Assay Type: Micronucleus test, chromosome aberrations, Assay Code: MNTT, Evaluation Type: Evaluation A (Pre-1980)) was “no conclusion”; the mutagenic call (Species/Cell Type: Mouse, Sex: Male, Assay Type: Sperm morphology, Assay Code: SPI-, Evaluation Type: Evaluation A (Pre-1980)) was “inactive; negative”; the mutagenic call (Species/Cell Type: Neurospora crassa, Assay Type: Aneuploidy, chromosome aberrations, Assay Code: NEN-, Evaluation Type: Evaluation A (Pre-1980)) was “inactive; negative”; the mutagenic call under setting [2] is “active; positive”. Besides, the call (Species/Cell Type: Nonhuman, Assay Code: CCGT, Evaluation Type: Evaluation A (Pre-1980)) is recorded as “no conclusion”.

As for `C[C@H]1CCCCN1N=O`, the call under setting [1] is “active; positive”.

For the compound `CCN(CC)Cc1cc(CC(=O)NN)ccc1OC`, the mutagenic call (Species/Cell Type: Saccharomyces cerevisiae, Assay Type: Reverse gene mutation, Assay Code: YERT, Evaluation Type: Evaluation A (Pre-1980)) is on record as “no conclusion”.

Take `CC(C)(Oc1ccc(C2CCCc3ccccc32)cc1)C(=O)O` (stereo not given): the call under setting [1] is “active; positive”.

As to `O=[N+]([O-])O`, the mutagenic call was “active; positive” (Species/Cell Type: Bacillus subtilis (H17 vs M45), Assay Type: Rec-assay, spot test, DNA effects (bacterial DNA repair), Assay Code: REW+, Evaluation Type: Evaluation A (Pre-1980)); “active; positive” (Species/Cell Type: Mammalian polychromatic erythrocytes, Assay Type: Micronucleus test, chromosome aberrations, Assay Code: MNT+U, Dose Response: Unconfirmed positive response, Evaluation Type: Evaluation B (Post-1980)); “inactive; negative” (Species/Cell Type: Syrian hamster embryo (SA7/SHE) cells, Assay Type: Cell transformation, viral enhanced, Assay Code: CT7-, Evaluation Type: Evaluation A (Pre-1980)); “no conclusion” (Species/Cell Type: Syrian hamster embryo (SHE) cells, Assay Type: Cell transformation, clonal assay, Assay Code: CTCT, Evaluation Type: Evaluation A (Pre-1980)).

Regarding `c1ccc2cc3c4c(ccc3cc2c1)CCC1OC41` (stereo not given), the mutagenic call (Species/Cell Type: Chinese hamster lung (V79) cells, Assay Type: Forward gene mutation at the HPRT or ouabain locus, Assay Code: V79+, Evaluation Type: Evaluation A (Pre-1980)) is “active; positive”.

As to `C[n+]1c2ccccc2cc2cccc(N)c21`, under “Species/Cell Type: Saccharomyces cerevisiae, Assay Type: Forward gene mutation, Assay Code: YEF+, Evaluation Type: Evaluation A (Pre-1980)”, the mutagenic call was “active; positive”.

For `O[As](O)O`, the mutagenic call reads like this: (Species/Cell Type: Escherichia coli WP2, Assay Type: Tryptophan reverse gene mutation, Assay Code: WP2-, Evaluation Type: Evaluation A (Pre-1980)) “inactive; negative”; (Species/Cell Type: Human lymphocytes or leukocytes, Assay Type: Chromosome aberrations in vitro, Assay Code: CY7+, Evaluation Type: Evaluation A (Pre-1980)) “active; positive”.

For the compound `CC(C)(C)OOCO`, under “Species/Cell Type: Neurospora crassa, Assay Type: Reverse gene mutation, Assay Code: NER+, Evaluation Type: Evaluation A (Pre-1980)”, the mutagenic call was “active; positive”.

Turning to `CCNC1(c2ccccc2)CCCCC1`, the mutagenic call (Species/Cell Type: Syrian hamster embryo (SA7/SHE) cells, Assay Type: Cell transformation, viral enhanced, Assay Code: CT7+, Evaluation Type: Evaluation A (Pre-1980)) was “active; positive”.

As to `CCN(N=O)C(=O)Nc1ccccc1`, the mutagenic call (Species/Cell Type: Nonhuman, Assay Type: Sister-chromatid exchange (SCE) in vitro, Assay Code: SC2+D, Dose Response: With dose response, Evaluation Type: Evaluation B (Post-1980)) was “active; positive”.

In the case of `Oc1ccccc1O`, the mutagenic call by setting is: (Species/Cell Type: Allium cepa, Assay Type: Chromosome aberrations, Assay Code: ALC+, Evaluation Type: Evaluation A (Pre-1980)) “active; positive”; (Species/Cell Type: Human lymphocytes, Assay Type: Sister-chromatid exchange (SCE) in vitro, Assay Code: SCL+D, Dose Response: With dose response, Evaluation Type: Evaluation B (Post-1980)) “active; positive”; (Species/Cell Type: Human, Assay Type: Sister-chromatid exchange (SCE) in vitro, Assay Code: SC1+D, Dose Response: With dose response, Evaluation Type: Evaluation B (Post-1980)) “active; positive”; (Species/Cell Type: Mammalian polychromatic erythrocytes, Assay Type: Micronucleus test, chromosome aberrations, Assay Code: MNTT, Evaluation Type: Evaluation B (Post-1980)) “no conclusion”.

On to `Clc1ccc(C2CO2)cc1` (stereo not given), for which, under setting [3], the mutagenic call was “no conclusion”.

Regarding `CCOCc1c(O)cc2c(c1O)C(=O)c1ccccc1C2=O`, under setting [2], the mutagenic call is “active; positive”.

Values taken from PubChem BioAssay AID1259408 (Genetic Toxicology Data Bank (GENE-TOX), 2018).
